Assays:
[1] = system: CD11b+ cells, neutrophils/G-MDSC and monocytes/M-MDSC; assay: Innate immune response (spleen CD11b+ IHC, FACS of MDSC) of mice bearing MB49 tumors; format: in vivo; conditions: for CD11b+ cells in the spleen (IHC): day 6 post VTP; for neutrophils/G-MDSC and monocytes/M-MDSC in splenocytic cells (FACS): day 9 post treatment, Gemzar 60 or 120 mg/kg
Protocol: (§1) • (i) Bacteriochlorophyll Derivatives—The Bchl derivatives and RGD-conjugates thereof were provided by Steba Biotech (Rehovot, Israel). […] Concentration was verified by spectrophotometric measurement. STL-7012 was provided as dipotassium salt. Working solution was prepared by dissolving STL-7012 K^+ salt in 5% mannitol solution (1 mg/ml). […] WST11 was supplied as a powder and kept in the dark at −20° C. Stock was prepared by dissolving WST11 in DDW containing 5% glucose and 0.67% mannitol, aliquoted and lyophilized. Working solution was reconstituted with DDW and the concentration of solution was confirmed spectrophotometrically. Alternatively, Clinical WST11 (batch: P00611, and 10-130611) was supplied as lyophilized formulation. Material was dissolved in 5% dextrose, aliquoted and stored at −20° C. At the day of treatment the aliquot was thawed, filtered and the concentration of solution was confirmed spectrophotometrically. • (ii) Chemotherapeutic drugs preparation and storage—Gemcitabine (GEM, Gemzar®, Lilly) was purchased from a local pharmacy as a powder, dissolved in saline to a concentration of 38 mg/ml, aliquoted and stored at −20° C. […] Cyclophosphamide (CTX, Endoxan®, Baxter Oncology Gmbh, Germany) was purchased from a local pharmacy. A stock solution of 20 mg/ml was prepared by dissolving in 0.9% NaCl, aliquoted and stored at −20° C. Aliquots were thawed, diluted with saline if needed to a desired concentration and used on the same day prepared at indicated doses. • (iii) Murine cell lines—Mammary luciferase (luc)-labeled 4T1 cell line (4T1-Luc) was a kind gift from Dr. Zvi Granot (Faculty of Medicine, The Hebrew University of Jerusalem, Israel); melanoma B16-F10 cell line was obtained from the American Type Culture Collection (ATCC, Manassas, Va.); bladder MB49 cell line was a kind gift from James Allison (MSKCC, New York, USA), and luc-labeled MB49-cell line was established using the murine stem cell virus (MSCV)-puromycin-luc-GFP construct (kindly provided by Dr. Emily Cheng, Human Oncology and Pathogenesis Program, MSKCC). 4T1 and MB49 cells were maintained in DMEM medium and B16-F10 cells in RPMI medium supplemented with 1 mmol/L sodium pyruvate, 10% fetal calf serum (FCS), 250 μg/ml hygromycin, 0.06 mg/ml penicillin and 0.1 mg/ml streptomycin. […] Whole body imaging of luciferase-transfected tumors and metastases were recorded five minutes following 75 mg Kg^−1 intraperitoneal (i.p.) injection of D-luciferin with respective filter sets. • (vi) PDT treatment protocol: 4T1-Luc cells were grafted in the mammary pad of Balb/c mice. […] Ablation of primary tumors was assessed every 7 days by imaging the tumor's luciferase-mediated bioluminescence signal, using IVIS. […]

[2] = Spleen weight of animals orthotopically grafted with 4T1 cancer cells; format: in vivo, mice; conditions: 1 and 3 weeks
Description: FIG. 13 compares changes in the spleen weight of animals orthotopically grafted with 4T1 cancer cells and not treated (control) with tumor bearing animals that underwent Gemzar treatment, WST11 VTP treatment or their combination.

MB49 (bladder) tumors [3] = assay: Systemic anti-tumor response in MB49 mice: second tumor (bilateral model) and tail vein re-challenge (Scheme 3); format: in vivo; conditions: for animals with growth of second tumor grafted at left hind leg 1 day post VTP (fraction): bilateral model, Gemzar 50 mg/kg
Protocol: as §1, with “C.” for “C. Aliquots were thawed, diluted with saline if needed to a desired concentration and used on the same day prepared at indicated doses. • (iii) Murine cell lines—Mammary luciferase (luc)-labeled 4T1 cell line (4T1-Luc) was a kind gift from Dr. Zvi Granot (Faculty of Medicine, The Hebrew University of Jerusalem, Israel); melanoma B16-F10 cell line was obtained from the American Type Culture Collection (ATCC, Manassas, Va.); bladder MB49 cell line was a kind gift from James Allison (MSKCC, New York, USA), and luc-labeled MB49-cell line was established using the murine stem cell virus (MSCV)-puromycin-luc-GFP construct (kindly provided by Dr. Emily Cheng, Human Oncology and Pathogenesis Program, MSKCC). 4T1 and MB49 cells were maintained in DMEM medium and B16-F10 cells in RPMI medium supplemented with 1 mmol/L sodium pyruvate, 10% fetal calf serum (FCS), 250 μg/ml hygromycin, 0.06 mg/ml penicillin and 0.1 mg/ml streptomycin.”

MB49 (bladder) tumors [4] = assay: WST11 VTP and Gemzar in mice grafted with MB49 tumors (Scheme 2); format: in vivo; conditions: for animals cured (fraction): WST11 9 mg/kg VTP day 15 post grafting, Gemzar 50 mg/kg, 12 treatments/90 days; for cure / tumor progression: single treatment modalities
Protocol: • (i) Bacteriochlorophyll Derivatives—The Bchl derivatives and RGD-conjugates thereof were provided by Steba Biotech (Rehovot, Israel). […] Concentration was verified by spectrophotometric measurement. STL-7012 was provided as dipotassium salt. Working solution was prepared by dissolving STL-7012 K^+ salt in 5% mannitol solution (1 mg/ml). […] WST11 was supplied as a powder and kept in the dark at −20° C. Stock was prepared by dissolving WST11 in DDW containing 5% glucose and 0.67% mannitol, aliquoted and lyophilized. Working solution was reconstituted with DDW and the concentration of solution was confirmed spectrophotometrically. Alternatively, Clinical WST11 (batch: P00611, and 10-130611) was supplied as lyophilized formulation. Material was dissolved in 5% dextrose, aliquoted and stored at −20° C. At the day of treatment the aliquot was thawed, filtered and the concentration of solution was confirmed spectrophotometrically. • (ii) Chemotherapeutic drugs preparation and storage—Gemcitabine (GEM, Gemzar®, Lilly) was purchased from a local pharmacy as a powder, dissolved in saline to a concentration of 38 mg/ml, aliquoted and stored at −20° C. […] Cyclophosphamide (CTX, Endoxan®, Baxter Oncology Gmbh, Germany) was purchased from a local pharmacy. A stock solution of 20 mg/ml was prepared by dissolving in 0.9% NaCl, aliquoted and stored at −20° C. Aliquots were thawed, diluted with saline if needed to a desired concentration and used on the same day prepared at indicated doses. • (iii) Murine cell lines—Mammary luciferase (luc)-labeled 4T1 cell line (4T1-Luc) was a kind gift from Dr. Zvi Granot (Faculty of Medicine, The Hebrew University of Jerusalem, Israel); melanoma B16-F10 cell line was obtained from the American Type Culture Collection (ATCC, Manassas, Va.); bladder MB49 cell line was a kind gift from James Allison (MSKCC, New York, USA), and luc-labeled MB49-cell line was established using the murine stem cell virus (MSCV)-puromycin-luc-GFP construct (kindly provided by Dr. Emily Cheng, Human Oncology and Pathogenesis Program, MSKCC). 4T1 and MB49 cells were maintained in DMEM medium and B16-F10 cells in RPMI medium supplemented with 1 mmol/L sodium pyruvate, 10% fetal calf serum (FCS), 250 μg/ml hygromycin, 0.06 mg/ml penicillin and 0.1 mg/ml streptomycin. The cells were grown as monolayer at 37° C. in a humidified atmosphere (5% CO2, 95% air). • (iv) Murine tumor models—Female, Balb/c mice (6-8 week old) were grafted either subcutaneously (s.c.) into the right hind leg or orthotopically with 1×10^6 4T1 cells suspended in 50 or 1000 PBS. For the rechallenge study, 2×10^5 4T1 cells were orthotopically grafted. For bladder cancer model, 5×10^4 of MB49 or MB49-luciferase cell line were s.c. injected into the right flank of C57B/6 male mice (7-8 weeks old, Taconic, Hudson, N.Y.) 15 days prior to VTP treatment. For the efficacy study of VTP in immune compromised mice, the same number of MB49 cells was injected in the flank of Rag^−/− on C57B/6 background or C57B/6 male mice (7-8 week old, Jackson Laboratory, Bar Harbor, Me.). For bilateral model of MB49 cells, animals received 5×10^4 MB49 cells in the right flank and 5×10^4 cells in the left flank on days −15 and +1, respectively. All experimental procedures were approved by the Institutional Animal Care and Use Committee at the Weizmann Institute of Science (Rehovot, Israel) and The Memorial Sloan Kettering Cancer Center (MSKCC, New York, USA). […] Whole body imaging of luciferase-transfected tumors and metastases were recorded five minutes following 75 mg Kg^−1 intraperitoneal (i.p.) injection of D-luciferin with respective filter sets. • (vi) PDT treatment protocol: 4T1-Luc cells were grafted in the mammary pad of Balb/c mice. […] During the first two post-treatment days, the mice received analgesia (2.5 mg/kg Flunexin, once daily). Ablation of primary tumors was assessed every 7 days by imaging the tumor's luciferase-mediated bioluminescence signal, using IVIS. […]

SMILES: Nc1ccn([C@@H]2O[C@H](CO)[C@@H](O)C2(F)F)c(=O)n1 [Gemzar, Gemcitabine]
- CD11b+ cells in the spleen (IHC) [1]: depletes CD11b+ cells
- neutrophils/G-MDSC and monocytes/M-MDSC in splenocytic cells (FACS) [1]: depleted systemically
- six fold increase in spleen weight found in non-treated animals [2]: almost completely avoided
- animals with growth of second tumor grafted at left hind leg 1 day post VTP (fraction) (MB49 (bladder) tumors [3]): 15/20
- animals cured (fraction) (MB49 (bladder) tumors [4]): 0/19
- cure (MB49 (bladder) tumors [4]): 0%
- tumor progression (MB49 (bladder) tumors [4]): slightly delayed tumor progression

SMILES: CCC1c2cc3[n-]c(c(CC(=O)OC)c4nc(cc5[n-]c(cc(n2)C1C)c(C(C)=O)c5C)C(C)C4CCC(=O)[O-])c(C(=O)NCCS(=O)(=O)[O-])c3C.[K+].[K+].[Pd+2] (stereo not drawn) [WST11, Palladium 3^1-oxo-15-methoxycarbonylmethyl-rhodobacteriochlorin 13^1-(2-sulfoethyl) amide dipotassium salt]
- CD11b+ cells in the spleen (IHC) [1]: depletes CD11b+ cells
- neutrophils/G-MDSC and monocytes/M-MDSC in splenocytic cells (FACS) [1]: depleted systemically
- six fold increase in spleen weight found in non-treated animals [2]: completely prevented
- animals with growth of second tumor grafted at left hind leg 1 day post VTP (fraction) (MB49 (bladder) tumors [3]): 12/19
- surviving mice that rejected the tumor cells (MB49 (bladder) tumors [3]; re-challenge by tail vein injection of MB49 cells at day 125 post VTP): 70%
- animals cured (fraction) (MB49 (bladder) tumors [4]): 3/19
- cure (MB49 (bladder) tumors [4]): 16%
- tumor progression (MB49 (bladder) tumors [4]): slightly delayed tumor progression

— patent publication US11278555B2, “Combinational therapies for treatment of cancer comprising a bacteriochlorophyll derivative” (Yeda Research and Development Co. Ltd., priority 2016, dated 2022)
